In article PMC10408569, “Recruitment of hexahydroquinoline as anticancer scaffold targeting inhibition of wild and mutants EGFR (EGFR^WT, EGFR^T790M, and EGFR^L858R)” (Journal of Enzyme Inhibition and Medicinal Chemistry, 2023):

What was measured:
ACHN = assay: NCI-60 anticancer screening (SRB); type: cell-based; conditions: Homo sapiens, renal cancer, one dose 10 μM, read-out: Growth Inhibition Percentage (GI %)
MOLT-4 = assay: NCI-60 anticancer screening (SRB); type: cell-based; conditions: Homo sapiens; MOLT-4, leukemia; one dose 10 μM; read-out: Growth Inhibition Percentage (GI %)
SF-539 = assay: NCI-60 anticancer screening (SRB); type: cell-based; conditions: Homo sapiens; SF-539, CNS cancer; one dose 10 μM; read-out: Growth Inhibition Percentage (GI %)
EKVX = assay: NCI-60 anticancer screening (SRB); type: cell-based; conditions: Homo sapiens, NSC lung cancer, one dose 10 μM, read-out: Growth Inhibition Percentage (GI %)
SF-295 = assay: NCI-60 anticancer screening (SRB); type: cell-based; conditions: Homo sapiens; SF-295, CNS cancer; one dose 10 μM; read-out: Growth Inhibition Percentage (GI %)
HOP-92 = assay: NCI-60 anticancer screening (SRB); type: cell-based; conditions: Homo sapiens; HOP-92, NSC lung cancer; one dose 10 μM; read-out: Growth Inhibition Percentage (GI %)
SNB-19 = assay: NCI-60 anticancer screening (SRB); type: cell-based; conditions: Homo sapiens; SNB-19, CNS cancer; one dose 10 μM; read-out: Growth Inhibition Percentage (GI %)
SN 12C = assay: NCI-60 anticancer screening (SRB); type: cell-based; conditions: Homo sapiens, SN12C; SN 12C, renal cancer; one dose 10 μM; read-out: Growth Inhibition Percentage (GI %)
HCC-2998 = assay: NCI-60 anticancer screening (SRB); type: cell-based; conditions: Homo sapiens; HCC-2998, colon cancer; one dose 10 μM; read-out: Growth Inhibition Percentage (GI %)
MALME-3M = assay: NCI-60 anticancer screening (SRB); type: cell-based; conditions: Homo sapiens, melanoma, one dose 10 μM, read-out: Growth Inhibition Percentage (GI %)
UO-31 = assay: NCI-60 anticancer screening (SRB); type: cell-based; conditions: Homo sapiens; UO-31, renal cancer; one dose 10 μM; read-out: Growth Inhibition Percentage (GI %)
HT29 = assay: NCI-60 anticancer screening (SRB); type: cell-based; conditions: Homo sapiens, HT-29; HT29, colon cancer; one dose 10 μM; read-out: Growth Inhibition Percentage (GI %)
EGFR^L858R = EGFR^L858R (Homo sapiens, UniProt P00533, L858R); assay: biochemical
HS 578T = assay: NCI-60 anticancer screening (SRB); type: cell-based; conditions: Homo sapiens; HS 578T, breast cancer; one dose 10 μM; read-out: Growth Inhibition Percentage (GI %)
SK-MEL-5 = assay: NCI-60 anticancer screening (SRB); type: cell-based; conditions: Homo sapiens; SK-MEL-5, melanoma; one dose 10 μM; read-out: Growth Inhibition Percentage (GI %)
CAKI-1 = assay: NCI-60 anticancer screening (SRB); type: cell-based; conditions: Homo sapiens; CAKI-1, renal cancer; one dose 10 μM; read-out: Growth Inhibition Percentage (GI %)
SK-MEL-28 = assay: NCI-60 anticancer screening (SRB); type: cell-based; conditions: Homo sapiens; SK-MEL-28, melanoma; one dose 10 μM; read-out: Growth Inhibition Percentage (GI %)
HOP-62 = assay: NCI-60 anticancer screening (SRB); type: cell-based; conditions: Homo sapiens; HOP-62, NSC lung cancer; one dose 10 μM; read-out: Growth Inhibition Percentage (GI %)
OVCAR-3 = assay: NCI-60 anticancer screening (SRB); type: cell-based; conditions: Homo sapiens; OVCAR-3, ovarian cancer; one dose 10 μM; read-out: Growth Inhibition Percentage (GI %)
MDA-MB-435 = assay: NCI-60 anticancer screening (SRB); type: cell-based; conditions: Homo sapiens; MDA-MB-435, melanoma; one dose 10 μM; read-out: Growth Inhibition Percentage (GI %)
UACC-62 = assay: NCI-60 anticancer screening (SRB); type: cell-based; conditions: Homo sapiens; UACC-62, melanoma; one dose 10 μM; read-out: Growth Inhibition Percentage (GI %)
DU-145 = assay: NCI-60 anticancer screening (SRB); type: cell-based; conditions: Homo sapiens; DU-145, prostate cancer; one dose 10 μM; read-out: Growth Inhibition Percentage (GI %)
NCI-H522 = assay: NCI-60 anticancer screening (SRB); type: cell-based; conditions: Homo sapiens; NCI-H522, NSC lung cancer; one dose 10 μM; read-out: Growth Inhibition Percentage (GI %)
EGFR^WT = EGFR^WT (Homo sapiens, UniProt P00533); assay: EGFR kinase inhibitory assay (HTRF)
A549/ATCC = assay: NCI-60 anticancer screening (SRB); type: cell-based; conditions: Homo sapiens; A549/ATCC, NSC lung cancer; one dose 10 μM; read-out: Growth Inhibition Percentage (GI %)
RPMI-8226 = assay: NCI-60 anticancer screening (SRB); type: cell-based; conditions: Homo sapiens; RPMI-8226, leukemia; one dose 10 μM; read-out: Growth Inhibition Percentage (GI %)
OVCAR-4 = assay: NCI-60 anticancer screening (SRB); type: cell-based; conditions: Homo sapiens; OVCAR-4, ovarian cancer; one dose 10 μM; read-out: Growth Inhibition Percentage (GI %)
EGFR^T790M = EGFR^T790M (Homo sapiens, UniProt P00533, T790M); assay: biochemical
NCI-H460 = assay: NCI-60 anticancer screening (SRB); type: cell-based; conditions: Homo sapiens; NCI-H460, NSC lung cancer; one dose 10 μM; read-out: Growth Inhibition Percentage (GI %)
OVCAR-8 = assay: NCI-60 anticancer screening (SRB); type: cell-based; conditions: Homo sapiens; OVCAR-8, ovarian cancer; one dose 10 μM; read-out: Growth Inhibition Percentage (GI %)

EGFR^T790M, sequence (P00533 25-1210 T790M): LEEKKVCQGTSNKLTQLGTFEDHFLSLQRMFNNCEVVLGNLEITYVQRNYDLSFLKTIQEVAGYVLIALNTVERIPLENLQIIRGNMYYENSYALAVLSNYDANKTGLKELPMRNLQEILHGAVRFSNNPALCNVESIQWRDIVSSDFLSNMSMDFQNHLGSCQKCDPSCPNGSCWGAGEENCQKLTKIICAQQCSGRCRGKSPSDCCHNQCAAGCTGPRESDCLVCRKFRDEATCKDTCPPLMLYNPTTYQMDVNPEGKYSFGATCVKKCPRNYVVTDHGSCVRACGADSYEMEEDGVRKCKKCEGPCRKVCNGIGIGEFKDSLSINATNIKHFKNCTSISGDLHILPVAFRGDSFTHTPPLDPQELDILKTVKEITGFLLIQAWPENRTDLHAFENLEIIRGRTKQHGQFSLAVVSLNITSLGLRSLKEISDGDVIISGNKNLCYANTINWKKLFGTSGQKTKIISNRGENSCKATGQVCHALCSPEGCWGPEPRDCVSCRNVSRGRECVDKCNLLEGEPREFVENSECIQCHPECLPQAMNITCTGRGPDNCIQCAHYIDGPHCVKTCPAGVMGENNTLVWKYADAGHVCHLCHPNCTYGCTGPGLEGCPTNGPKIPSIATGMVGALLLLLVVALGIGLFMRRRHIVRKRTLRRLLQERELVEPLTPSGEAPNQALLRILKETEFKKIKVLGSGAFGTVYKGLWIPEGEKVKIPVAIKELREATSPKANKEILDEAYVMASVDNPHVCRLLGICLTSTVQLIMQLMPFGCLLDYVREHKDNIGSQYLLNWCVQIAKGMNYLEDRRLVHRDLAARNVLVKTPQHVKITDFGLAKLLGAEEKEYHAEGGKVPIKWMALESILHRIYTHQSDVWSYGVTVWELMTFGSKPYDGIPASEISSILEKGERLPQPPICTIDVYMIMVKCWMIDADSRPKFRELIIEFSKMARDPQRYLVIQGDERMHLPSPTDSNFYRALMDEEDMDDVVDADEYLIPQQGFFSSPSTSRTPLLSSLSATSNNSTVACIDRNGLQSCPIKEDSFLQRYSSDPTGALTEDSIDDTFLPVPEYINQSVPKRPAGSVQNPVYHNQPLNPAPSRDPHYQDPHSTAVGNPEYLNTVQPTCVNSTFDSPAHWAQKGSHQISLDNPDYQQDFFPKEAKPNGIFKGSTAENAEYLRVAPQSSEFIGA
EGFR^L858R, sequence (P00533 25-1210 L858R): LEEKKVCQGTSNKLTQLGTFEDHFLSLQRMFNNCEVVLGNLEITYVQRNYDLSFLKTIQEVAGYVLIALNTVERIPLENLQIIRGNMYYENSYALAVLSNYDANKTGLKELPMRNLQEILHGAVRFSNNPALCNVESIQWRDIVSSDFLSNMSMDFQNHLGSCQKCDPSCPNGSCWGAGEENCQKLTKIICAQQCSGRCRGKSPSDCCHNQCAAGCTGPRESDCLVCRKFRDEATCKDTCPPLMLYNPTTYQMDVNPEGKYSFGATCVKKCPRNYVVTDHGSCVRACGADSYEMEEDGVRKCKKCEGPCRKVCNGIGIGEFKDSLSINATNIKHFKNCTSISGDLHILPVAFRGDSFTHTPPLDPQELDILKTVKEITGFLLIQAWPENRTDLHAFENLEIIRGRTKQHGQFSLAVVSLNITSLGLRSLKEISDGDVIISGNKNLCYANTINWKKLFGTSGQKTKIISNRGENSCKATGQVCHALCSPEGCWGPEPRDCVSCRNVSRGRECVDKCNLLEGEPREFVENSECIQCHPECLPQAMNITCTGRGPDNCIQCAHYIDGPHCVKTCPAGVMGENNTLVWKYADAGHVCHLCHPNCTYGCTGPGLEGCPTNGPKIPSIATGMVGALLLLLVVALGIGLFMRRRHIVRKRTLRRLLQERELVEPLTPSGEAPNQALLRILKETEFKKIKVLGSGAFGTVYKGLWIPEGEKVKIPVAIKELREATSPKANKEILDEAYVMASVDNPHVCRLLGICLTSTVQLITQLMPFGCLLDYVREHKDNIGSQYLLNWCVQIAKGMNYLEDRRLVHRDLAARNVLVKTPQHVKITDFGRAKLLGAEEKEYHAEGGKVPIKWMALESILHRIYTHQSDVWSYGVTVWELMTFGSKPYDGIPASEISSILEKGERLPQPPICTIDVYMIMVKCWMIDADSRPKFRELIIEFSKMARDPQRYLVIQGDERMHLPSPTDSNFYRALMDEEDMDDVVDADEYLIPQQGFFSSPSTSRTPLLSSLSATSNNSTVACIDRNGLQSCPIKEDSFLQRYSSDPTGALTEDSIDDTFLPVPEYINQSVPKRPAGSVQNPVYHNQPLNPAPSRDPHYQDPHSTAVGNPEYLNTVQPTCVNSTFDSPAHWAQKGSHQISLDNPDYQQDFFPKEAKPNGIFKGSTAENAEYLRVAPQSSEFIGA
EGFR^WT, sequence (P00533 25-1210): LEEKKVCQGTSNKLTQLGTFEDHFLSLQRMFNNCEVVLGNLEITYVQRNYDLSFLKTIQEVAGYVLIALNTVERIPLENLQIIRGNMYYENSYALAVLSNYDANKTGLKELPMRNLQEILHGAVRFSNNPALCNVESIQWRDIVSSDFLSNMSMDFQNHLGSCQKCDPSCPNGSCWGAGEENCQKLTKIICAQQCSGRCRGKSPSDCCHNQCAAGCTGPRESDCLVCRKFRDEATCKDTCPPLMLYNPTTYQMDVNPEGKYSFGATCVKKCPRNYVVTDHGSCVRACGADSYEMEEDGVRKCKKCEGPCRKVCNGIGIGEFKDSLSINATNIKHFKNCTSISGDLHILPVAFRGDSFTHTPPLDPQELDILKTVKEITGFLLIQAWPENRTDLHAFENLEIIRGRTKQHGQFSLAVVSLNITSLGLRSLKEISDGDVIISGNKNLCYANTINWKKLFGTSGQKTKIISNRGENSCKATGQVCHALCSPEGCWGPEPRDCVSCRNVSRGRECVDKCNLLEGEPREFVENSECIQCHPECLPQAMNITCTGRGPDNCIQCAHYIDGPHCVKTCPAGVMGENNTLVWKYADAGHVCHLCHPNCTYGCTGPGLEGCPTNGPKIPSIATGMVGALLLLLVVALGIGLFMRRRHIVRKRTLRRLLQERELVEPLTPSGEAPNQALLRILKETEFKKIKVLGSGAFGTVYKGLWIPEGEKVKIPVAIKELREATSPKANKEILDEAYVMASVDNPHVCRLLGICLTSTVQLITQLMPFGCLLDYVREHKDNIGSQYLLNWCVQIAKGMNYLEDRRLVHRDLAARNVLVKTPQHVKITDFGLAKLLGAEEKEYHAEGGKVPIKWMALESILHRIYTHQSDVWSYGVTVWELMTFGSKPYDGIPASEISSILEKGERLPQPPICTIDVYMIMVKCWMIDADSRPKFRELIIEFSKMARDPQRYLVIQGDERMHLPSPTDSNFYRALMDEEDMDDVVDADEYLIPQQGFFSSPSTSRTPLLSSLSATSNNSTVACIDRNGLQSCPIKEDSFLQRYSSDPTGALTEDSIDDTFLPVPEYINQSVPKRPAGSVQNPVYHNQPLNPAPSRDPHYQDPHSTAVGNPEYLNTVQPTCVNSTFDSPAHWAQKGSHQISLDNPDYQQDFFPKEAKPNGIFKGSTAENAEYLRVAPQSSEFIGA

Row | SMILES | inhibition at 10 µM (ACHN) [%] | inhibition at 10 µM (MOLT-4) [%] | inhibition at 10 µM (SF-539) [%] | inhibition at 10 µM (EKVX) [%] | inhibition at 10 µM (SF-295) [%] | inhibition at 10 µM (HOP-92) [%] | inhibition at 10 µM (SNB-19) [%] | inhibition at 10 µM (SN 12C) [%] | inhibition at 10 µM (HCC-2998) [%] | inhibition at 10 µM (MALME-3M) [%] | inhibition at 10 µM (UO-31) [%] | inhibition at 10 µM (HT29) [%] | IC50 (EGFR^L858R) [nM] | inhibition at 10 µM (HS 578T) [%] | inhibition at 10 µM (SK-MEL-5) [%] | inhibition at 10 µM (CAKI-1) [%] | inhibition at 10 µM (SK-MEL-28) [%] | inhibition at 10 µM (HOP-62) [%] | inhibition at 10 µM (OVCAR-3) [%] | inhibition at 10 µM (MDA-MB-435) [%] | also measured
1 | CCOC(=O)C1=C(N)N(c2ccccc2)C2=C(C(=O)CC(C)(C)C2)C1c1ccccc1Cl (racemic) [6a, (±)-Ethyl 2-amino-4–(2-chlorophenyl)-7,7-dimethyl-5-oxo-1-phenyl-1,4,5,6,7,8-hexahydroquinoline-3-carboxylate] | 31 | 75 | < 10 | 26 | 25 | 32 | 30 | 25 | 15 | 11 | 45 | 45 | 490 ± 4 | < 10 | 40 | 54 | 19 | < 10 | 38 | 27 | inhibition at 10 µM (UACC-62): 56%; inhibition at 10 µM (DU-145): 12%; inhibition at 10 µM (NCI-H522): 43%; IC50 (EGFR^WT): 358 ± 160 nM; inhibition at 10 µM (A549/ATCC): 25%; melting point: 168 to 170 °C; inhibition at 10 µM (RPMI-8226): 78%; inhibition at 10 µM (OVCAR-4): 26%; IC50 (EGFR^T790M): 610 ± 5 nM; inhibition at 10 µM (NCI-H460): 40%; inhibition at 10 µM (OVCAR-8): 17%
2 | CCOC(=O)C1=C(N)N(c2ccc(Cl)cc2)C2=C(C(=O)CC(C)(C)C2)C1c1ccccc1Cl (racemic) [6c, (±)-Ethyl 2-amino-4–(2-chlorophenyl)-1–(4-chlorophenyl)-7,7-dimethyl-5-oxo-1,4,5,6,7,8-hexahydroquinoline-3-carboxylate] | 40 | < 10 | < 10 | 30 | 27 | 29 | 27 | 31 | 24 | 30 | 51 | 60 | 500 ± 4 | < 10 | 66 | 43 | < 10 | 19 | 44 | 29 | inhibition at 10 µM (UACC-62): 45%; inhibition at 10 µM (DU-145): < 10%; inhibition at 10 µM (NCI-H522): 63%; IC50 (EGFR^WT): 277 ± 120 nM; inhibition at 10 µM (A549/ATCC): 51%; melting point: 179 to 181 °C; inhibition at 10 µM (RPMI-8226): < 10%; inhibition at 10 µM (OVCAR-4): 32%; IC50 (EGFR^T790M): 530 ± 4 nM; inhibition at 10 µM (NCI-H460): 58%; inhibition at 10 µM (OVCAR-8): 30%
3 | CCOC(=O)C1=C(N)N(c2ccccc2)C2=C(C(=O)CC(C)(C)C2)C1c1ccccc1Br (racemic) [6d, (±)-Ethyl 2-amino-4–(2-bromophenyl)-7,7-dimethyl-5-oxo-1-phenyl-1,4,5,6,7,8-hexahydroquinoline-3-carboxylate] | 11 | 25 | < 10 | 11 | < 10 | 27 | < 10 | < 10 | < 10 | < 10 | 14 | 17 | 250 ± 5 | < 10 | < 10 | 36 | < 10 | < 10 | < 10 | < 10 | inhibition at 10 µM (UACC-62): 36%; inhibition at 10 µM (DU-145): < 10%; inhibition at 10 µM (NCI-H522): 23%; IC50 (EGFR^WT): 99 ± 20 nM; inhibition at 10 µM (A549/ATCC): 13%; melting point: 220 to 222 °C; inhibition at 10 µM (RPMI-8226): 35%; inhibition at 10 µM (OVCAR-4): 12%; IC50 (EGFR^T790M): 410 ± 2 nM; inhibition at 10 µM (NCI-H460): 20%; inhibition at 10 µM (OVCAR-8): < 10%
